# Assay results taken from patent publication US20260071252A1, “REVERSIBLE NANOPARTICLE AGGREGATES AND METHODS FOR DETECTING PROTEASES” (The Regents of the University of California, priority 2022, published 2026).
# Where no end group is shown, it is not given here.
# Tests used:
# [1] = Dissociation efficiency of HS-PEG6-OCH3 for alternative assembly conditions or coating ligands; conditions: high concentration (>100 μM) of HS-PEG6-OCH3
# Procedure: First, peptide-free conditions were used to promote the assembly of AuNPs-citrate and its dissociation with HS-PEG6-OCH3 was evaluated (FIG. 3A). Here, salts were added to AuNPs-citrate to induce aggregation via disruption of the electrostatic repulsion forces between the particles. […] Unlike the peptide Arg-Arg, these ions cannot sterically prevent the AuNPs from falling in an irreversible aggregated state.
# AuNPs with different coating ligands were also evaluated and compared to citrate: bis(p-sulfonatophenyl)phenylphosphine (BSPP), mercaptobenzoic acid (MBA), or thiolated PEG-COOH (HS-PEG-COOH; Mw=634 g·mol^−1). […] This is because MBA and HS-PEG-COOH make covalent Au—S bonds with the gold surface that prevent subsequent grafting of HS-PEG6-OCH3.
# Finally, an alternative control peptide was used for assembly (Cys-Arg-Lys).
# [2] = Dissociation of Arg-Arg-AuNPs assemblies with HS-PEGs (UV-Vis percentage of dissociation, MANTA size)
# Excerpt: Dissociation of the AuNPs assemblies. […] HS-PEG6-OCH3 was chosen because its grafting on AuNPs ensure a high colloidal stability of these latter. Indeed, the grafting of thiolated PEGs has been widely reported in the literature via the formation of a strong Au—S bond conferring to the particles a high colloidal stability due to a combination of hydrophilicity and steric hindrance.^30-32 The Au—S bond being stronger than the arginine-citrate, arginine-gold or even citrate-gold interactions, […] was expected to be capable of progressively replacing the arginine/citrate layers at the gold surface, disrupting the electrostatic network, and eventually dispersing the AuNPs (Scheme 1). Briefly, aqueous suspensions Arg-Arg-AuNPs assemblies were exposed to increasing concentrations of HS-PEG6-OCH3, and the dissociation of the assemblies was characterized by TEM, MANTA, FTIR and UV-Vis spectroscopies (FIG. 2).
# The presence of a PEG layer around the AuNPs explains the difference in the hydrodynamic diameter versus the initial AuNPs-citrate (48±32 nm vs 40±25 nm). Remarkably, the LSPR band of the dissociated AuNPs was identical to the AuNPs-citrate: The color of the sample returned to its initial bright red color. […] For the remainder of this study, the efficiency of the dissociation will be characterized by the percentage of dissociation (%) as measured by UV-Vis spectroscopy (comparison between the LSPR band after dissociation versus that from AuNPs-citrate). See the experimental section in the supporting information for more details. […] This finding is particularly interesting because the typical grafting density of HS-PEG6-OCH3 on dispersed AuNPs is reported to be between 3.5 and 4 HS-PEG6-OCH3/nm^2.^33 This implies that no excess of HS-PEGs was needed to dissociate the entire assembly-only enough to cover all the gold surface. It is worth noting that the kinetics of the dissociation was almost instantaneous (equilibrium reached within a minute) (FIG. 14). A video of the dissociation of the AuNPs assemblies is available online.
# Dissociation. Stock solutions of the different HS-PEGs with concentrations ranging from 10 μM to 1 mM were prepared. Specific volumes of each solution were added to a 96-well plate in order to reach the desired final HS-PEGs concentration and then 100 μL of Arg-Arg-AuNPs were added. For complex matrices experiments, the Arg-Arg-AuNPs were first concentrated 10 times by centrifugation and then dispersed in complex media (sea water, pooled human saliva, plasma, urine, bile or HEK cell lysates) that represented thus 90% of the total volume except for bile, which was only 20%. Quickly after the addition of AuNPs, the dissociation of the assembly was monitored and the ratio of the absorbances at 520 nm and 700 nm was recorded over time. The percentage of dissociation is described as follows:
# The optical absorption measurements were collected using a hybrid multi-mode microplate reader (Synergy™ H1 model, BioTek Instruments, Inc.) in a 96-well plate. The dissociation of assembly was characterized by measuring the ratio of the absorbance at 520 nm or 530 nm and 700 nm or 820 nm for 20 nm NPs or 40 nm NPs, respectively.
# The multispectral advanced nanoparticle tracking analysis (MANTA) is a technique that builds images from the particles' light scattering via three lasers of different wavelengths (for example, blue, green, and red); the wavelength of scattering depends on nanoparticle size. Thus, small particles (less than, or <, 100 nm) appear blue while larger particles appear greener or redder. MANTA uses these images to count the nanoparticles and calculate their size based on Brownian motion. […] 3000™ (Horiba Scientific, USA). The temperature was set to 25° C. during the measurement. Automated noise analysis determines the optimal wavelength for representing each nanoparticle. Here, 8-bit composite videos were generated, and 10 videos were used per analysis (300 frames for seconds).
# [3] = Dissociation of AgNP aggregates by A18 fragments released by Mpro cleavage; conditions: AgNPs 20 nm, color from blue to yellow
# [4] = target: SARS-CoV-2 main protease (Mpro) (Severe acute respiratory syndrome coronavirus 2, UniProt P0DTD1)
# trypsin activity = assay: Detection of trypsin activity in vivo with photoacoustic imaging, gold nanorods assemblies; conditions: mouse model
# trypsin = assay: Trypsin sensing with HS-PEG-peptide conjugates and Arg-Arg-AuNPs assemblies; type: biochemical
# Procedure: Peptides containing the motif Arg-Arg-Lys (RRK) were thus conjugated to a thiolated PEG capped with a carboxyl group (HS-PEG12-COOH, Mw=634 Da) via EDC/NHS cross-linking reaction. Three peptides based on the motif RRK were investigated and the number of RRK repetitions varied from 1 to 3 to increase the mass and charge of the resulting HS-PEG-peptide conjugate (FIG. 6A).
# From concentrations of 10 μM, HS-PEG12-COOH is capable to dissociate 100% of the assemblies (FIG. 21). However, the conjugation of the peptides to the HS-PEG12-COOH was expected to decrease its capacity to dissociate the assemblies as it increases its size and charge. In this context, the addition of the HS-PEG-peptide conjugates to AuNPs assemblies could not generate a colorimetric signal. However, in the presence of trypsin, the proteolytic cleavage could progressively remove the amino acids residues from the conjugate, thus reducing its size and charge that would restore the dissociation capacity. A colorimetric signal, proportional to the trypsin activity, could thus be observed (FIG. 6B).
# Typically, 1 mL of HS-PEG12-COOH (HS—(CH2CH2O)12—CH2CH2COOH, 634 Da, 1 mM) dissolved in MES buffer (10 mM, pH=5.5) was activated via the addition of 100 μL of EDC (50 mM, MES) and 40 μL of NHS (500 mM, MES). The reaction was stirred at room temperature for one hour. After one hour, 1 mL of peptide (or NH2-molecule) (1 mM) dissolved in PBS (100 mM, pH=7.4) was added to the activated HS-PEG12-COOH. The reaction was stirred for 4 hours at room temperature and then stored at 4° C.
# Typically, 5 μL of the PEG-peptide conjugate (0.44 mM) were added to 5 μL of PBS 1×. […] At the end of the incubation, 100 μL of aggregated AuNPs (Arg-Arg-AuNPs) were added, and a color change proportional to the trypsin concentration was observed. UV-Vis spectra were recorded 30 minutes later.
# HS-PEG-RRK conjugate = tested on: T1, HS-PEG-RRK conjugate
# T1 sequence: RRK
# HS-PEG-RRKRRK conjugate = tested on: T2, HS-PEG-RRKRRK conjugate
# T2 sequence: RRKRRK
# HS-PEG-TSG conjugate = tested on: T3, HS-PEG-TSG conjugate
# T3 sequence: TSG
# [5] = tested on: T4, HS-PEG-RRKRRKRRK conjugate
# T4 sequence: RRKRRKRRK
compound,measurement,setting,value
"COCCOCCOCCOCCOCCOCCOCCS [HS-PEG6-OCH3, 0-(2-mercaptoethyl)-O′-methyl-hexa(ethylene glycol)]",dissociation of the assembly by HS-PEG6-OCH3,[1],could not dissociate the assemblies
same,size of the aggregates (MANTA),"[2]; 2 μM HS-PEG6-OCH3, 10 minutes, from 467±120 nm",167±112 nm
same,average size of the aggregates (MANTA),[2]; 4 μM HS-PEG6-OCH3,136±85 nm
same,average size of the aggregates (MANTA),[2]; 8 μM HS-PEG6-OCH3,124±75 nm
same,dissociation in complex matrices,"[2]; 10 μM HS-PEG6-OCH3, plasma, urine, saliva, bile, HEK 293 cell lysates, sea water, matrix at least 90% of volume",At least 80%
same,aggregates dissociated,"[2]; 12 μM HS-PEG6-OCH3, LSPR band identical to AuNPs-citrate",100%
same,mean size (MANTA),[2]; 12 μM HS-PEG6-OCH3 and above,48±25 nm
CGGKKEEAVLQ [A18 fragment],dissociation of AgNP aggregates,[3],could dissociate AgNP aggregates
same,CDC,[4],40 µM
same,size of AuNP aggregates after dissociation,[4],26±0.30 nm
same,surface charge after dissociation,[4],−27±0.95 mV
same,time for dissociation,[4],≤ 10 min
"HS-PEG-RRKRRK: HS-PEG12-COOH conjugated to peptide RRKRRK via EDC/NHS; mixture of single and multiple conjugations (also: HS-PEG12 conjugated via EDC/NHS, site not given here, mixture of single and multiple conjugations)",photoacoustic signal,trypsin activity,increase of photoacoustic signal
same,dissociation capacity of the intact conjugate,"trypsin; titrated to Arg-Arg-AuNPs, up to >100 μM, no trypsin",total quenching of the dissociation capacity
same,dissociation capacity after digestion with trypsin,"trypsin; trypsin 10 μM, 37° C., 24 h",restored
same,limit of detection of trypsin,trypsin; visual detection,picomolar
trypsin,dissociation capacity for Arg-Arg-AuNPs after trypsin digestion,HS-PEG-RRK conjugate,HS-PEG-RRK was also enhanced
same,dissociation capacity for Arg-Arg-AuNPs after trypsin digestion,HS-PEG-RRKRRK conjugate,the dissociation capacity of HS-PEG-RRKRRK (SEQ ID NO:13) and HS-PEG-[..] (SEQ ID NO:14) was restored
same,dissociation capacity for Arg-Arg-AuNPs after trypsin digestion,HS-PEG-TSG conjugate,It is not impacted by the digestion by trypsin
same,dissociation capacity for Arg-Arg-AuNPs after trypsin digestion,[5],the dissociation capacity of HS-PEG-RRKRRK (SEQ ID NO:13) and HS-PEG-[..] (SEQ ID NO:14) was restored
